Results published in US8952024B2, “Herbicidal pyrimidone derivatives” (E I du Pont de Nemours and Company, priority 2009, dated 2015).

Key:
Format in all cases: in vivo
[1] = tested on: rice (Oryza sativa); assay: Test B flooded paddy test; details: for Plant response rating, Flood, Rice: 250 g ai/ha, flooded paddy test, visual rating on 0 to 100 scale (0 no effect, 100 complete control) after 13 to 15 days; for Plant response rating, Rice: Flood (flooded paddy test), 13 to 15 days; for Rice plant response rating: Flood, 31 g ai/ha, scale 0 to 100 (0 no effect, 100 complete control)
In short: (§1)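 Visual scores run from 0 (no effect) to 100 (complete control), assigned by comparison with controls 13 to 15 days after treatment. Test compounds went straight into water standing 3 cm above the soil, around plants at the 2-leaf stage kept in a greenhouse.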

[2] = tested on: barnyardgrass (Echinochloa crus-galli); assay: Test B flooded paddy test; details: for Plant response rating, Flood, Barnyardgrass: 250 g ai/ha, flooded paddy test, visual rating on 0 to 100 scale (0 no effect, 100 complete control) after 13 to 15 days; for Plant response rating, Barnyardgrass: Flood (flooded paddy test), 13 to 15 days; for Barnyardgrass plant response rating: Flood, 31 g ai/ha, scale 0 to 100 (0 no effect, 100 complete control)
In short: as §1

[3] = tested on: ducksalad (Heteranthera limosa); assay: Test B flooded paddy test; details: for Plant response rating, Flood, Ducksalad: 250 g ai/ha, flooded paddy test, visual rating on 0 to 100 scale (0 no effect, 100 complete control) after 13 to 15 days; for Plant response rating, Ducksalad: Flood (flooded paddy test), 13 to 15 days; for Ducksalad plant response rating: Flood, 31 g ai/ha, scale 0 to 100 (0 no effect, 100 complete control)
In short: as §1

[4] = tested on: umbrella sedge (Cyperus difformis); assay: Test B flooded paddy test; details: for Plant response rating, Flood, Sedge, Umbrella: 250 g ai/ha, flooded paddy test, visual rating on 0 to 100 scale (0 no effect, 100 complete control) after 13 to 15 days; for Plant response rating, Sedge, Umbrella: Flood (flooded paddy test), 13 to 15 days; for Sedge, Umbrella plant response rating: Flood, 31 g ai/ha, scale 0 to 100 (0 no effect, 100 complete control)
In short: as §1

[5] = tested on: corn (Zea mays); assay: Test A pre-/postemergence plant response; details: for Corn plant response rating: visual injury, 0 to 100 scale (0 no effect, 100 complete control), approx. ten days
In short: (§2)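 Injury scores (0, no effect; 100, complete control) come from visual comparison with untreated controls roughly ten days post-treatment. Test chemicals in a surfactant-containing non-phytotoxic solvent were applied as a directed soil spray preemergence and to one- to two-leaf seedlings postemergence.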

[6] = tested on: barnyardgrass (Echinochloa crus-galli); assay: Test A pre-/postemergence plant response; details: for Barnyardgrass plant response rating: visual injury, 0 to 100 scale (0 no effect, 100 complete control), approx. ten days
In short: as §2

[7] = tested on: pigweed (Amaranthus retroflexus); assay: Test A pre-/postemergence plant response; details: for Pigweed plant response rating: visual injury, 0 to 100 scale (0 no effect, 100 complete control), approx. ten days
In short: as §2

[8] = tested on: velvetleaf (Abutilon theophrasti); assay: Test A pre-/postemergence plant response; details: for Velvetleaf plant response rating: visual injury, 0 to 100 scale (0 no effect, 100 complete control), approx. ten days
In short: as §2

[9] = tested on: morningglory (Ipomoea spp.); assay: Test A pre-/postemergence plant response; details: for Morningglory plant response rating: visual injury, 0 to 100 scale (0 no effect, 100 complete control), approx. ten days
In short: as §2

[10] = tested on: giant foxtail (Setaria faberii); assay: Test A pre-/postemergence plant response; details: for Foxtail, Giant plant response rating: visual injury, 0 to 100 scale (0 no effect, 100 complete control), approx. ten days
In short: as §2

[11] = tested on: wheat (Triticum aestivum); assay: Test A pre-/postemergence plant response; details: for Wheat plant response rating: visual injury, 0 to 100 scale (0 no effect, 100 complete control), approx. ten days
In short: as §2

[12] = tested on: large crabgrass (Digitaria sanguinalis); assay: Test A pre-/postemergence plant response; details: for Crabgrass, Large plant response rating: visual injury, 0 to 100 scale (0 no effect, 100 complete control), approx. ten days
In short: as §2

[13] = 62 g ai/ha, scale of 0 to 100 where 0 is no effect and 100 is complete control
[14] = 125 g ai/ha, scale 0 to 100, 0 is no effect, 100 is complete control
[15] = Postemergence, 125 g ai/ha, 0 to 100 scale where 0 is no effect and 100 is complete control
[16] = Preemergence, 125 g ai/ha, 0 to 100 scale, 0 = no effect, 100 = complete control
[17] = Preemergence, 500 g ai/ha, 0 to 100 scale, 0 = no effect, 100 = complete control

## Cc1ccccc1-n1c(-c2cccc(Br)c2)ncc(C(=O)C2=C(O)CCCC2=O)c1=O [Compound 209]
[1]
  Plant response rating, Flood, Rice: 20
  Rice plant response rating: 0
[1]; [13]
  Plant response rating, Rice: 0
[1]; [14]
  Plant response rating, Rice: 10
[2]
  Plant response rating, Flood, Barnyardgrass: 20
  Barnyardgrass plant response rating: 0
[2]; [13]
  Plant response rating, Barnyardgrass: 0
[2]; [14]
  Plant response rating, Barnyardgrass: 0
[3]
  Plant response rating, Flood, Ducksalad: 85
  Ducksalad plant response rating: 0
[3]; [13]
  Plant response rating, Ducksalad: 50
[3]; [14]
  Plant response rating, Ducksalad: 85
[4]
  Plant response rating, Flood, Sedge, Umbrella: 80
  Sedge, Umbrella plant response rating: 0
[4]; [13]
  Plant response rating, Sedge, Umbrella: 50
[4]; [14]
  Plant response rating, Sedge, Umbrella: 70
[5]; [15]
  Plant response rating, Corn: 0
[5]; Postemergence, 500 g ai/ha
  Corn plant response rating: 40
[5]; [16]
  Plant response rating, Corn: 0
[5]; [17]
  Plant response rating, Corn: 20
[6]; [15]
  Plant response rating, Barnyardgrass: 80
[6]; Postemergence, 500 g ai/ha
  Barnyardgrass plant response rating: 100
[6]; [16]
  Plant response rating, Barnyardgrass: 0
[6]; [17]
  Plant response rating, Barnyardgrass: 50
[7]; [15]
  Plant response rating, Pigweed: 60
[7]; Postemergence, 500 g ai/ha
  Pigweed plant response rating: 100
[7]; [16]
  Plant response rating, Pigweed: 0
[7]; [17]
  Plant response rating, Pigweed: 70
[8]; [15]
  Plant response rating, Velvetleaf: 100
[8]; Postemergence, 500 g ai/ha
  Velvetleaf plant response rating: 100
[8]; [16]
  Plant response rating, Velvetleaf: 60
[8]; [17]
  Plant response rating, Velvetleaf: 100
[9]; [15]
  Plant response rating, Morningglory: 30
[9]; Postemergence, 500 g ai/ha
  Morningglory plant response rating: 100
[9]; [16]
  Plant response rating, Morningglory: 0
[9]; [17]
  Plant response rating, Morningglory: 30
[10]; [15]
  Plant response rating, Foxtail, Giant: 60
[10]; Postemergence, 500 g ai/ha
  Foxtail, Giant plant response rating: 100
[10]; [16]
  Plant response rating, Foxtail, Giant: 10
[10]; [17]
  Plant response rating, Foxtail, Giant: 60
[11]; [15]
  Plant response rating, Wheat: 0
[11]; Postemergence, 500 g ai/ha
  Wheat plant response rating: 0
[11]; [16]
  Plant response rating, Wheat: 0
[11]; [17]
  Plant response rating, Wheat: 0
[12]; [15]
  Plant response rating, Crabgrass, Large: 50
[12]; Postemergence, 500 g ai/ha
  Crabgrass, Large plant response rating: 100
[12]; [16]
  Plant response rating, Crabgrass, Large: 20
[12]; [17]
  Plant response rating, Crabgrass, Large: 70

## Cc1ccc(-n2c(-c3cccc(C)c3)ncc(C(=O)C3=C(O)CCCC3=O)c2=O)cc1 [Compound 211]
[1]
  Plant response rating, Flood, Rice: 15
  Rice plant response rating: 0
[1]; [13]
  Plant response rating, Rice: 0
[1]; [14]
  Plant response rating, Rice: 0
[2]
  Plant response rating, Flood, Barnyardgrass: 35
  Barnyardgrass plant response rating: 0
[2]; [13]
  Plant response rating, Barnyardgrass: 0
[2]; [14]
  Plant response rating, Barnyardgrass: 25
[3]
  Plant response rating, Flood, Ducksalad: 85
  Ducksalad plant response rating: 50
[3]; [14]
  Plant response rating, Ducksalad: 85
[4]
  Plant response rating, Flood, Sedge, Umbrella: 80
  Sedge, Umbrella plant response rating: 0
[4]; [13]
  Plant response rating, Sedge, Umbrella: 0
[4]; [14]
  Plant response rating, Sedge, Umbrella: 70
[5]; [15]
  Plant response rating, Corn: 0
[5]; Postemergence, 500 g ai/ha
  Corn plant response rating: 20
[5]; [16]
  Plant response rating, Corn: 0
[5]; [17]
  Plant response rating, Corn: 0
[6]; [15]
  Plant response rating, Barnyardgrass: 50
[6]; Postemergence, 500 g ai/ha
  Barnyardgrass plant response rating: 100
[6]; [16]
  Plant response rating, Barnyardgrass: 10
[6]; [17]
  Plant response rating, Barnyardgrass: 70
[7]; [15]
  Plant response rating, Pigweed: 70
[7]; Postemergence, 500 g ai/ha
  Pigweed plant response rating: 90
[7]; [16]
  Plant response rating, Pigweed: 40
[7]; [17]
  Plant response rating, Pigweed: 60
[8]; [15]
  Plant response rating, Velvetleaf: 60
[8]; Postemergence, 500 g ai/ha
  Velvetleaf plant response rating: 70
[8]; [16]
  Plant response rating, Velvetleaf: 30
[8]; [17]
  Plant response rating, Velvetleaf: 60
[9]; [15]
  Plant response rating, Morningglory: 70
[9]; Postemergence, 500 g ai/ha
  Morningglory plant response rating: 100
[9]; [16]
  Plant response rating, Morningglory: 0
[9]; [17]
  Plant response rating, Morningglory: 10
[10]; [15]
  Plant response rating, Foxtail, Giant: 50
[10]; Postemergence, 500 g ai/ha
  Foxtail, Giant plant response rating: 80
[10]; [16]
  Plant response rating, Foxtail, Giant: 20
[10]; [17]
  Plant response rating, Foxtail, Giant: 50
[11]; [15]
  Plant response rating, Wheat: 0
[11]; Postemergence, 500 g ai/ha
  Wheat plant response rating: 0
[11]; [16]
  Plant response rating, Wheat: 0
[11]; [17]
  Plant response rating, Wheat: 0
[12]; [15]
  Plant response rating, Crabgrass, Large: 40
[12]; Postemergence, 500 g ai/ha
  Crabgrass, Large plant response rating: 80
[12]; [16]
  Plant response rating, Crabgrass, Large: 10
[12]; [17]
  Plant response rating, Crabgrass, Large: 90

## COc1ccc(-n2c(-c3cccc(C)c3)ncc(C(=O)C3=C(O)CCCC3=O)c2=O)cc1 [Compound 212]
[1]
  Plant response rating, Flood, Rice: 10
  Rice plant response rating: 0
[1]; [13]
  Plant response rating, Rice: 0
[1]; [14]
  Plant response rating, Rice: 0
[2]
  Plant response rating, Flood, Barnyardgrass: 50
  Barnyardgrass plant response rating: 0
[2]; [13]
  Plant response rating, Barnyardgrass: 0
[2]; [14]
  Plant response rating, Barnyardgrass: 0
[3]
  Plant response rating, Flood, Ducksalad: 95
  Ducksalad plant response rating: 85
[3]; [13]
  Plant response rating, Ducksalad: 85
[3]; [14]
  Plant response rating, Ducksalad: 90
[4]
  Plant response rating, Flood, Sedge, Umbrella: 95
  Sedge, Umbrella plant response rating: 80
[4]; [13]
  Plant response rating, Sedge, Umbrella: 85
[4]; [14]
  Plant response rating, Sedge, Umbrella: 90
[5]; [15]
  Plant response rating, Corn: 0
[5]; Postemergence, 500 g ai/ha
  Corn plant response rating: 0
[5]; [16]
  Plant response rating, Corn: 0
[5]; [17]
  Plant response rating, Corn: 0
[6]; [15]
  Plant response rating, Barnyardgrass: 50
[6]; Postemergence, 500 g ai/ha
  Barnyardgrass plant response rating: 100
[6]; [16]
  Plant response rating, Barnyardgrass: 10
[6]; [17]
  Plant response rating, Barnyardgrass: 90
[7]; [15]
  Plant response rating, Pigweed: 100
[7]; Postemergence, 500 g ai/ha
  Pigweed plant response rating: 100
[7]; [16]
  Plant response rating, Pigweed: 60
[7]; [17]
  Plant response rating, Pigweed: 90
[8]; [15]
  Plant response rating, Velvetleaf: 70
[8]; Postemergence, 500 g ai/ha
  Velvetleaf plant response rating: 70
[8]; [16]
  Plant response rating, Velvetleaf: 50
[8]; [17]
  Plant response rating, Velvetleaf: 70
[9]; [15]
  Plant response rating, Morningglory: 50
[9]; Postemergence, 500 g ai/ha
  Morningglory plant response rating: 100
[9]; [16]
  Plant response rating, Morningglory: 0
[9]; [17]
  Plant response rating, Morningglory: 80
[10]; [15]
  Plant response rating, Foxtail, Giant: 0
[10]; Postemergence, 500 g ai/ha
  Foxtail, Giant plant response rating: 40
[10]; [16]
  Plant response rating, Foxtail, Giant: 10
[10]; [17]
  Plant response rating, Foxtail, Giant: 50
[11]; [15]
  Plant response rating, Wheat: 0
[11]; Postemergence, 500 g ai/ha
  Wheat plant response rating: 0
[11]; [16]
  Plant response rating, Wheat: 0
[11]; [17]
  Plant response rating, Wheat: 0
[12]; [15]
  Plant response rating, Crabgrass, Large: 10
[12]; Postemergence, 500 g ai/ha
  Crabgrass, Large plant response rating: 30
[12]; [16]
  Plant response rating, Crabgrass, Large: 0
[12]; [17]
  Plant response rating, Crabgrass, Large: 40
